Results published in patent publication US4810709A, “Nintrovincaminic acid derivatives having pharmaceutical utility” (Richter Gedeon Vegyeszefi Gyar R.T., priority 1984, dated 1989).
Values after ≈ are worked out from the molar mass of the structure shown. Where a name gives a salt, the structure may show the parent alone. Read-outs that look alike come from different tables or passages of the source.

How the values were obtained:
asphyxic anoxia test = format: in vivo; conditions: 1 h; oral, one hour before; protected = survival longer by 30% than control
Protocol: According to the asphyxic anoxia test [Caillard O. et al.: Life Sci. 16, 1607 (1975(], the animals were starved for 16 hours, then treated orally, and one hour following the treatment they were allocated in tightly closed glass bottles of 100 ml volume. The time of survival was registered as the time interval from closing the bottle up to the last respiration. The animals were considered as protected when they were alive for a time longer by 30% than the average time of survival of the control group.
(§1) According to the hypobaric hypoxia test [Baumel J. et al.: Proc. Soc. Bio. N.Y. 132, 629 (1969)], the animals were starved for 16 hours, then treated orally and one hour following the treatment they were allocated in an exsiccator where the pressure was decreased to 170 Hgmm within 20 seconds. The time of survival was registered from this time point up to the last respiration. The animals were considered as protected when they were alive for a time longer by 100% than the average time of survival of the control group. The ED50 value (i.e. the dose which was effective in 50%) was calculated from the percentage of the protected animals by using the probit analysis method.

hypobaric hypoxia test = format: in vivo; conditions: 1 h; oral, one hour before, 170 Hgmm; protected = survival longer by 100% than control
Protocol: as §1

[1] = system: conscious mice under normobaric hypoxia; experiment: antihypoxic activity on conscious mice under normobaric hypoxia; format: in vivo; conditions: 50 mg/kg i.p.; for Time of survival, % / Time of survival, Mean ± deviation: 96% nitrogen and 4% oxygen; for Time of survival, %: increase over control; for Time of survival, Mean ± deviation: 30 minutes before, control 6.0 ± 1.04 min; for Protection: protected = alive for twofold time of untreated animals
Protocol: According to one method, the antihypoxic activity was studied on conscious mice under normobaric hypoxia. Five male mice were placed in a glass cylinder of 3 liters volume flown through by a gas mixture containing 96% of nitrogen and 4% of oxygen. The time interval from the allocation up to the perishment of the animals was measured for 15 minutes as a maximum. The animals were considered as protected when they were alive for a twofold time length as compared to the time of perishment of the untreated animals. The compounds under test were intraperitoneally administered to 10 animals each in a dose of 50 mg/kg of body-weight 30 minutes before allocating in the glass cylinder.

[2] = system: isolated guinea pig ileum; experiment: Inhibition of barium-chloride-induced contraction of guinea pig ileum (spasmolytic activity); conditions: for IC50: Cavia porcellus, read-out: ED50, inhibition of barium-chloride-induced contraction of guinea pig ileum
Protocol: The spasmolytic activity of the compounds was determined by using the traditional method, i.e. on the isolated guinea pig ileum [Magnus, R., Pflugers Arch. 102, 123 (1904)]. Papaverine and ethyl (+)-apovincamate used as therapeutic spasmolytics were used as reference drugs.

femoral artery = experiment: extremital blood flow in the femoral artery of anaesthetized dogs (vasodilating effect); format: in vivo; conditions: 1 mg/kg of body-weight intravenous, chloralose-pentobarbital anaesthetized dogs
Protocol: (§2) The vasodilating effect was studied in dogs anaesthetized by a chloralose-pentobarbital mixture. […] Electromagnetic flow meters were used for measuring the blood flow. The substances under test were intravenously administered in a dose of 1 mg/kg of body-weight to 6 dogs and the percentage changes of the parameters measured were evaluated. Ethyl (+)-apovincamate, a commonly used therapeutic cerebral vasodilator was employed as reference drug.

internal carotid artery = experiment: cerebral blood flow in the internal carotid artery of anaesthetized dogs (vasodilating effect); format: in vivo; conditions: 1 mg/kg of body-weight intravenous, chloralose-pentobarbital anaesthetized dogs
Protocol: as §2

in vivo [3] = experiment: in vivo; design: species or system mice; conditions: mouse, po
Description: On determining the muscle relaxant activity (traction test), male mice weighing 18 to 22 g were suspended by their upper legs on a horizontal wire of 5 mm in diameter.

mice [4] = experiment: maximal electroshock model (anticonvulsive); format: in vivo; conditions: Mus musculus, po; 20 mA, 0.2 sec.; p.o.; read-out: Anticonvulsive effect, Max. electroshock ED50
Description: On using the maximal electroshock model [Swinyard E. A. et at.: J. Pharmacol. Exp. Ther. 106, 319 (1959)], a shock (20 mA, 0.2 sec. HSE Shock Equipment Type 207) was given to mice weighing 22 to 24 g by using corneal electrodes. The animals were considered as protected the tonic extension of the lower extremities of which were abolished.

mice [5] = experiment: metrazole seizure method (anticonvulsive); format: in vivo; conditions: Mus musculus, po; 125 mg/kg s.c. pentylenetetrazole; p.o.; read-out: Anticonvulsive effect, Metrazole seizure ED50
Protocol: On using the metrazole seizure method [Everett, G. M. and Richards, R. K.: J. Pharmacol. Exp. Ther., 81, 402 (1944)], a subcutaneous dose of 125 mg/kg of pentylenetetrazole was administered to mice after pre-treatment. The persistant clonic convulsions as well as the tonic extensory convulsions abolished by the treatment were registered.

in vivo [6] = conditions: po
Protocol: On using the muscle incoordination model (rotarod method) [H. Kwibara et al.: Japan J. Pharmacol. 27, 117 (1977)], after a previous training the animals were selected which could […] for 120 seconds on a horizontal rod of 20 mm in diameter rotating with 12 rpm. A muscle-incoordinating action was stated when the animals fell down from the rotating rod within the time limits.

[7] = isolated guinea pig ileum, barium chloride

Row | Compound | ED50 (asphyxic anoxia test) | ED50 (hypobaric hypoxia test) | Time of survival, % [1] | Time of survival, Mean ± deviation [1] | Circulatory effects (change in %): Femoral flow (femoral artery) | Circulatory effects (change in %): Carotid artery flow (internal carotid artery) | Protection [1] | other results
1 | CCOC(=O)C1=C[C@]2(CC)CCCN3CCc4c(n1c1ccccc41)[C@@H]32 [Ethyl (+)-apovincamate, reference compound] | > 50 mg/kg | > 50 mg/kg | 7% | 6.4 ± 1.58 min | +15% | +30% |  | IC50 [2, 7]: 2 µg/mL (≈ 5.71 µM)
2 | CC[C@]12CCCN3CCc4c(n(c5ccccc45)[C@@](O)(C(=O)OC)C1)[C@@H]32 [Vincamine, reference compound] |  |  | 2% | 6.1 ± 1.30 min |  |  |  | 
3 | Acetoxyethyl 9-nitroapovincamate |  |  | 68% | 10.1 ± 3.51 min |  |  | 30% | ED50, inhibition of barium-chloride-induced contraction of guinea pig ileum [2, 7]: 0.4 µg/mL
4 | COc1ccc(Cc2nccc3cc(OC)c(OC)cc23)cc1OC [Papaverine, reference compound] |  |  |  |  |  |  |  | IC50 [2]: 5.4 µg/mL (≈ 15.9 µM)
5 | CCOC(=O)C1=CC2(CC)CCCN3CCc4c(n1c1cccc([N+](=O)[O-])c41)C32 (single isomer, unassigned) [Ethyl 9-nitroapovincamate, ethyl 9-nitroapovincamate] |  |  | 123% | 13.4 ± 2.37 min | 0% | +95% | 80% | IC50 [2, 7]: 1 µg/mL (≈ 2.53 µM)
6 | CCCOC(=O)C1=C[C@]2(CC)CCCN3CCc4c(n1c1cccc([N+](=O)[O-])c41)[C@@H]32 [Propyl 9-nitroapovincamate] |  |  |  |  |  |  |  | ED50, inhibition of barium-chloride-induced contraction of guinea pig ileum [2, 7]: 0.2 µg/mL
7 | CCOC(=O)C1=CC2(CC)CCCN3CCc4c(n1c1cccc([N+](=O)[O-])c41)C32 (single isomer, unassigned) [ethyl 9-nitroapovincamate monohydrochloride] | 42.7 mg/kg | > 50 mg/kg |  |  |  |  |  | TD50 (in vivo [3]): > 180 mg/kg; ED50 (mice [4]): 25.6 mg/kg; ED50 (mice [5]): 27.6 mg/kg; TD50 (in vivo [6]): > 180 mg/kg
8 | CCOC(=O)C1=CC2(CC)CCCN3CCc4c(n1c1cc([N+](=O)[O-])ccc41)C32 (single isomer, unassigned) [Ethyl 11-nitroapovincamate, ethyl 11-nitroapovincamate] |  |  | 83% | 11.0 ± 3.35 min |  |  | 50% | 
9 | CCC1(c2ccccc2)NC(=O)N(C)C1=O (centres unmarked) [Mephenytoin] | > 80 mg/kg | > 80 mg/kg |  |  |  |  |  | TD50 (in vivo [6]): 78.6 mg/kg
10 | CCC12C=C(C(=O)OCCO)n3c4c(c5c([N+](=O)[O-])cccc53)CCN(CCC1)C42 (single isomer, unassigned) [2-Hydroxyethyl 9-nitroapovincamate, 2-hydroxyethyl 9-nitroapovincamate] |  |  |  |  | +10% | +45% |  | 
